# Experimental data reported in patent publication US20250280826A1, “PLANT GROWTH PROMOTER” (KAO CORPORATION, priority 2022, published 2025).
# System: Lotus japonicus
# Assay: Example 8: number of pods and seed weight in Lotus japonicus
# Assay type: in vivo
# Conditions: ascorbic acid 1,500 ppm, tap water vs deionized water
# Method: Medium-term fertilizer effect type culture soil (Takii hydrous cell medium-term fertilizer effect type, Takii & Co., Ltd.) and vermiculite grains (Akagi-Engei Co., Ltd.) were mixed at a volume ratio of 1:1, and the soil was placed in a polypot (diameter: 6 cm, height: 5.5 cm).
# The Lotus japonicus seeds used were Miyakojima MG-20 lineage. To a 2 mL microtube (Eppendorf) filled approximately ⅓ with the seeds, 1 mL of concentrated sulfuric acid (FUJIFILM Wako Pure Chemical Corporation) was added and allowed to stand for 10 minutes. After rinsing five times with tap water, the seeds were soaked for two hours. After tap water was supplied in an amount of 100 mL per pot, 3 seeds, which had undergone germination treatment, per pot were each sown at a depth of from about 1 to 2 cm from the soil surface. The number of repeats in each test plot was 8 (n=8). […]
# For the preparation of the spraying solutions, BHT of the component (B) was previously dissolved in the component (C), and the components (C) and (D) were then mixed to prepare a second agent. […] The number of pods and seed weight of each plant were measured.
compound,measurement,value
"O=C1O[C@H]([C@@H](O)CO)C(O)=C1O [ascorbic acid, (R)-3,4-dihydroxy-5-((S)-1,2-dihydroxyethyl)furan-2(5H)-one]",effects on the seed weight,varied in accordance with the water quality
